The numbers were not newly measured in US7893091B2, “Combination therapy for the treatment of urinary frequency, urinary urgency and urinary incontinence” (Merck Sharp & Dohme Corp., priority 2005, dated 2011), which cites them from elsewhere.

Structures are written as SMILES.

In one data set the test system is isolated bladder strips. Particulars: tissue bath.
For data set [1], the system named is rats.
Data set [2] deals with C-fibers. Particulars: more potent than capsaicin.
For data set [3], the system named is C-fibers. Particulars: instilled directly into the bladder.
In data set [4] the test system is rats. The source holds these as a separate data set.

In the case of `Cc1ccc(-c2c3n(c(=O)c4ncccc24)CC[C@@H](C)CN(Cc2cc(C(F)(F)F)cc(C(F)(F)F)c2)C3=O)cc1` [TAK-637], the “micturition reflex induced by electrical stimulation of the rostral brainstem near the locus coeruleus” value in the data set on decerebrate cats (3 mg/kg i.v.) is “did not inhibit”. In the data set on decerebrate cats (decerebrate cats, 0.1, 0.3, 1 and 3 mg/kg i.v.), the voiding efficiency result is recorded as “without any significant reduction”. Further, the “increase in bladder capacity (maximal increase)” value with decerebrate cats (decerebrate cats, 0.1, 0.3, 1 and 3 mg/kg i.v., dose-dependent) was 94%. In the data set with isolated bladder strips, the “carbachol or electrical field stimulation induced contractions of isolated bladder strips” value is given as “had no effect”. In addition, the “micturition reflex induced by topical application of capsaicin onto the surface of the bladder dome” value in the data set on guinea pig is “inhibited”. Besides, in the data set with guinea pig (systemic administration), the “distension-induced rhythmic bladder contractions” value is reported as “decreased the number but not the amplitude”.
On to `C[C@H](Cc1ccc2c(c1)OC(C(=O)[O-])(C(=O)[O-])O2)NC[C@H](O)c1cccc(Cl)c1.[Na+].[Na+]` [CL316243], for which the “voiding interval in the hyperreflexia paradigms” value in the data set on rats [1] (administered intravenously) is given as “dose-dependently normalizes voiding interval”. Moreover, the “spontaneous bladder contractions in the detrusor instability paradigm” value with rats [1] (administered orally) was “dose-dependent inhibition”. The bladder pressure entry in the data set with rats [1] (intravenous administration) was “reduces bladder pressure”. The “bladder capacity in cystomeric studies” value with rats [1] (intravenous administration, prolongation of micturition interval without increasing residual urine volume) is on record as “increases bladder capacity”.
Regarding `C=C(C)[C@]12C[C@@H](C)[C@@]34O[C@](Cc5ccccc5)(O[C@@H]1[C@@H]3C=C(COC(=O)Cc1ccc(O)c(OC)c1)C[C@]1(O)C(=O)C(C)=C[C@@H]41)O2` [Resinferatoxin], in the data set with C-fibers [2], the “potency relative to capsaicin” value is given as around 100 fold.
On to `COc1cc(CNC(=O)CCCC/C=C/C(C)C)ccc1O` [Capsaicin], for which the “beneficial effects (i.e. increased bladder capacity), share of patients” value in the data set with C-fibers [3] is listed as ~70 % of patients.
As to `COc1ccccc1CC(=N)N1C[C@@H]2C(=O)CCC(c3ccccc3)(c3ccccc3)[C@@H]2C1` [RP 67580], the “volume threshold in cyclophosphamide-induced model of bladder overactivity” value in the data set on rats [4] (rats, i.t. versus i.v. administration) is “increased the volume threshold after i.t., but not i.v. administration”.
Consider `CC(=O)NC1(c2ccccc2)CCN(CC[C@H](CN(C)C(=O)c2ccccc2)c2ccc(Cl)c(Cl)c2)CC1` [SR 48968], for which, in the data set on rats [4] (10 nmol/rat), the “response in cyclophosphamide-induced model of bladder overactivity” value is recorded as “moderate response”.
